Reference: US9649298B2, “Cytotoxic substance for use in combination with radiotherapy in cancer treatment” (Fumedica AG, priority 2013, dated 2017)

Key:
[1] = tested on: U-87 MG human glioblastoma xenographs; experiment: Tumor volume in U-87 MG human glioblastoma xenografts after microbeam radiation (fan-like array) and/or cisplatin; format: in vivo, Balb/c nude mice
glioblastoma tumor = experiment: Glioblastoma tumor size after irradiation with 50x50 microbeam array (Example 2) followed by cisplatin; format: in vivo; conditions: Cisplatin administered within 30 min to 1 h after irradiation with 50x50 microbeam array
Description: In this example, CAM were irradiated at the biomedical beamline of ESRF. The generation and preparation of the microbeams occurred basically in the same manner as described in Example 1 according to a second preferred embodiment with the substantially circular cross-section of each microbeam. The difference here however is that behind the multi-slit collimator a second collimator (such as an Archer variable multi-slit collimator) was placed into the path of the first array of microbeams formed by the first collimator. […] A GafChromic radiochromic film type […] But in Example 2 the irradiation rather punctures the tissue. Therefore, the level of exposure of the irradiated tissue is even less lethal and results in a […] chemotherapeutic window (compared to FIG. 4).

In the case of `N.N.[Cl][Pt][Cl]` [Cisplatin, cisplatin], the “tumor sizes after treatment (tumor volume, FIG. 8a)” value ([1]; double treatment (DT): Cisplatin administered after the MR procedure, within window of increased vascular permeability) is reported as “progressive and significant decrease”, the “tumor sizes after treatment (tumor volume, FIG. 8a)” value ([1]; only Cisplatin, single chemotherapeutic treatment, no irradiation) is reported as “gradual increase in size” and the “glioblastoma tumor sizes after treatment” value (glioblastoma tumor) is reported as “progressive and significant decrease”.
